One assay relates to MDA-MB-436. Put plainly: Viability assay, BRCA1 mutant cell line MDA-MB-436. As to conditions: Homo sapiens, MDA-MB-436, viability, BRCA1 mutant MDA-MB-436; read-out: MDA-MB-436 rel IC50. The assay is classed as cell-based. An excerpt: (§1) Table 1 also indicates IC50 values in a viability assay for a non-isogenic pair of BRCA1 mutant (column 5-MDA-MB-436) and BRCA1 WT (column 6—HCC1954) cell lines. These values indicate the effect of treatment with compound on cell survival.

In another assay the test system is HCC1954. Put plainly: Viability assay, BRCA1 WT cell line HCC1954. The assay is classed as cell-based. As to conditions: Homo sapiens, HCC1954, viability, read-out: HCC1954 rel IC50.
Source text: as §1

Another assay deals with monoubiquitinated PCNA. Put plainly: AlphaLISA assay measuring monoubiquitinated PCNA in MDA-MB-436. The assay is classed as cell-based. As to conditions: Homo sapiens, MDA-MB-436, monoubiquitinated PCNA, read-out: Alpha Lisa IC50. An excerpt:
Table 1 also indicates IC50 values for exemplary compounds in an AlphaLISA assay measuring monoubiquitinated PCNA in a BRCA1 mutant cell line (MDA-MB-436; column 7).
A general note: In Alpha technology, singlet oxygen from a donor bead excites a nearby acceptor bead.

For the next assay, the target named is USP1-UAF1 (Homo sapiens, UniProt O94782). Put plainly: Ubiquitin Rhodamine assay of USP1-UAF1 activity. The format is biochemical. Here is the method:
Certain compounds of the disclosure were assessed for USP1-UAF1 activity in a Ubiquitin Rhodamine assay as described in Biology Example 1.

Usually IC50 stands for the concentration needed to halve the response being measured.

Sequence of USP1-UAF1 (O94782 whole entry): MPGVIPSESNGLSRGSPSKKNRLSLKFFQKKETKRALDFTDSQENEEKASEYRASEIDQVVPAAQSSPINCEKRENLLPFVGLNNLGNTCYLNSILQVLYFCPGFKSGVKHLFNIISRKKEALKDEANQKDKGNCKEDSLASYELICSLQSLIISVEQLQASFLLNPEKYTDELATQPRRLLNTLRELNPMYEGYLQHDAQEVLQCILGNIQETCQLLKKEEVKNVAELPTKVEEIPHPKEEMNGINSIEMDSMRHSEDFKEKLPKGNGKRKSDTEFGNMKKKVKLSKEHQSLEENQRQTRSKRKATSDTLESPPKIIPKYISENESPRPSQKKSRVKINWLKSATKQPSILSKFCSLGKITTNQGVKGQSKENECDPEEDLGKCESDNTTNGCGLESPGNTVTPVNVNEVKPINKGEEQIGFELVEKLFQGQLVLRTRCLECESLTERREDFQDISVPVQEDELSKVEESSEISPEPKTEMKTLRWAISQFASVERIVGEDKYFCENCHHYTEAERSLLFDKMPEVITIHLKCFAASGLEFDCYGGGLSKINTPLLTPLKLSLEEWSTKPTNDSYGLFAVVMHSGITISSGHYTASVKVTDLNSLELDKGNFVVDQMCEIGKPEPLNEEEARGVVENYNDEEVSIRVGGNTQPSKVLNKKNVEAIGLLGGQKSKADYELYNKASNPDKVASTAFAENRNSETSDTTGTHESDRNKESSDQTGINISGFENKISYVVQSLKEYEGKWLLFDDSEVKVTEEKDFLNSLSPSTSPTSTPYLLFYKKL
Sequence of USP1-UAF1 (Q8TAF3 whole entry partner): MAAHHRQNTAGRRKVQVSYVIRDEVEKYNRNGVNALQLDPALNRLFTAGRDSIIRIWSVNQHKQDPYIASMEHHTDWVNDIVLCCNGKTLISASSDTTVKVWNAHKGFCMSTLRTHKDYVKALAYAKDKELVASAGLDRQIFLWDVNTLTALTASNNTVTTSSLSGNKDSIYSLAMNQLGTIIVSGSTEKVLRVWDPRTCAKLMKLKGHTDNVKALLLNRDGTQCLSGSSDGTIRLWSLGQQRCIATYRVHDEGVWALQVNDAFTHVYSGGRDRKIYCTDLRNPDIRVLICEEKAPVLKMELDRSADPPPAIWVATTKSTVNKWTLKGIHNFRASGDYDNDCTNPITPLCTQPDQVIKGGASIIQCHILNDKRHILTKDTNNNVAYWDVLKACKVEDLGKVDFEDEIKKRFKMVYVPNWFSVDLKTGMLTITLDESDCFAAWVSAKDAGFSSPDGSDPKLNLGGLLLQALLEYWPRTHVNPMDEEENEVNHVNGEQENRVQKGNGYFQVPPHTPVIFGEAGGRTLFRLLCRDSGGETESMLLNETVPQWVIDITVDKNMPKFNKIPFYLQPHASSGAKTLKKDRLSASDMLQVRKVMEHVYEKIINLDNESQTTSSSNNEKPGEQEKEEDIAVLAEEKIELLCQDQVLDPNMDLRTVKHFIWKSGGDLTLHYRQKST

Regarding `COc1ncccc1-c1ncc2c(n1)n(Cc1ccc(-c3nc(C(F)(F)F)cn3C)cc1)c(=N)n2CC(F)(F)F` [Example T-097, 2-(2-methoxy-3-pyridyl)-9-[[4-[1-methyl-4-(trifluoromethyl)imidazol-2-yl]phenyl]methyl]-7-(2,2,2-trifluoroethyl)purin-8-imine], the IC50 with MDA-MB-436 was 100 to 250 nM; in the assay on HCC1954, no less than 10000 nM; in the assay on monoubiquitinated PCNA, 250 to 10000 nM; against USP1-UAF1, 30 to 100 nM.
The corresponding values for `COc1ncnc(C2CC2)c1-c1ncc2c(n1)n(Cc1ccc(-n3nc(C(F)(F)F)cc3C)cc1)c(=N)n2CC(F)(F)F` [Example T-098, 2-(4-cyclopropyl-6-methoxy-pyrimidin-5-yl)-9-[[4-[5-methyl-3-(trifluoromethyl)pyrazol-1-yl]phenyl]methyl]-7-(2,2,2-trifluoroethyl)purin-8-imine] are less than 100 nM, no less than 10000 nM, 100 to 250 nM and 30 to 100 nM.
Take `CC(C)c1ccccc1-c1ncc2c(n1)n(Cc1ccc(-c3nc(C(F)(F)F)cn3C3CN(C)C3)cc1)c(=N)n2C` [Example T-099, 2-(2-isopropylphenyl)-7-methyl-9-(4-(1-(1-methylazetidin-3-yl)-4-(trifluoromethyl)-1H-imidazol-2-yl)benzyl)-7H-purin-8(9H)-imine]: the half-maximal inhibitory concentration (IC50) in the assay with MDA-MB-436 is less than 100 nM; in the assay on HCC1954, no less than 10000 nM; in the assay on monoubiquitinated PCNA it was 100 to 250 nM; on USP1-UAF1, 100 to 10000 nM.
As to `COc1ncnc(C2CC2)c1-c1ncc2c(n1)n(Cc1ccc(-n3nc(C(F)F)cc3OC)cc1)c(=N)n2CC(F)(F)F` [Example T-100, 2-(4-cyclopropyl-6-methoxy-pyrimidin-5-yl)-9-[[4-[3-(difluoromethyl)-5-methoxy-pyrazol-1-yl]phenyl]methyl]-7-(2,2,2-trifluoroethyl)purin-8-imine], the 50% inhibitory concentration (IC50) was 100 to 250 nM in the assay with MDA-MB-436, no less than 10000 nM in the assay on HCC1954, 100 to 250 nM in the assay with monoubiquitinated PCNA and 100 to 10000 nM at USP1-UAF1.
As to `COc1nc(C)nc(C2CC2)c1-c1ncc2c(n1)n(Cc1ccc(-c3nc(C(F)(F)F)cn3C)cc1)c(=N)n2CC(F)(F)F` [Example T-102, 2-(4-cyclopropyl-6-methoxy-2-methyl-pyrimidin-5-yl)-9-[[4-[1-methyl-4-(trifluoromethyl)imidazol-2-yl]phenyl]methyl]-7-(2,2,2-trifluoroethyl)purin-8-imine], the IC50 in the assay with MDA-MB-436 was 100 to 250 nM; with HCC1954 it was no less than 10000 nM; in the assay with monoubiquitinated PCNA, 250 to 10000 nM; at USP1-UAF1, 100 to 10000 nM.
The matching figures for `Cn1cc(C(F)(F)F)nc1-c1ccc(Cn2c(=N)n(C)c3cnc(-c4c(C5CC5)ncnc4C(F)(F)F)nc32)cc1` [Example T-103, 2-(4-cyclopropyl-6-(trifluoromethyl)pyrimidin-5-yl)-7-methyl-9-(4-(1-methyl-4-(trifluoromethyl)-1H-imidazol-2-yl)benzyl)-7H-purin-8(9H)-imine]: 100 to 250 nM, no less than 10000 nM, 100 to 250 nM and 30 to 100 nM.
Turning to `COc1ncnc(C2CC2)c1-c1ncc2c(n1)n(Cc1ccc(-c3nc(C(F)(F)F)oc3C)cc1)c(=N)n2CC(F)(F)F` [Example T-104, 2-(4-cyclopropyl-6-methoxy-pyrimidin-5-yl)-9-[[4-[5-methyl-2-(trifluoromethyl)oxazol-4-yl]phenyl]methyl]-7-(2,2,2-trifluoroethyl)purin-8-imine], the IC50 is 100 to 250 nM with MDA-MB-436, no less than 10000 nM in the assay with HCC1954, 250 to 10000 nM in the assay with monoubiquitinated PCNA and 100 to 10000 nM against USP1-UAF1.
The matching figures for `[2H]C([2H])([2H])Oc1ncnc(C2CC2)c1-c1ncc2c(n1)n(Cc1ccc(-c3nc(C(F)(F)F)cn3C)c(CC)c1)c(=N)n2CC(F)(F)F` [Example T-105, 2-[4-cyclopropyl-6-(trideuteriomethoxy)pyrimidin-5-yl]-9-[[3-ethyl-4-[1-methyl-4-(trifluoromethyl)imidazol-2-yl]phenyl]methyl]-7-(2,2,2-trifluoroethyl)purin-8-imine]: 250 to 10000 nM, no less than 10000 nM, 250 to 10000 nM and 100 to 10000 nM.
Regarding `CCn1cc(C(F)(F)F)nc1-c1ccc([C@@H](C)n2c(=N)n(CC(F)(F)F)c3cnc(-c4c(OC)ncnc4C4CC4)nc32)cc1` [Example T-106, (R)-2-(4-cyclopropyl-6-methoxypyrimidin-5-yl)-9-(1-(4-(1-ethyl-4-(trifluoromethyl)-1H-imidazol-2-yl)phenyl)ethyl)-7-(2,2,2-trifluoroethyl)-7H-purin-8(9H)-imine], the IC50 in the assay on MDA-MB-436 is less than 100 nM; in the assay on HCC1954, no less than 10000 nM; in the assay on monoubiquitinated PCNA it was less than 100 nM; at USP1-UAF1, less than 30 nM.
In the case of `COc1ncnc(C2CC2)c1-c1ncc2c(n1)n(Cc1ccc(-c3nc(C(F)(F)F)cn3C)c(C)c1)c(=N)n2CC(F)(F)F` [Example T-107, 2-(4-cyclopropyl-6-methoxy-pyrimidin-5-yl)-9-[[3-methyl-4-[1-methyl-4-(trifluoromethyl)imidazol-2-yl]phenyl]methyl]-7-(2,2,2-trifluoroethyl)purin-8-imine], the 50% inhibitory concentration (IC50) was 100 to 250 nM in the assay with MDA-MB-436, no less than 10000 nM in the assay with HCC1954, 100 to 250 nM in the assay with monoubiquitinated PCNA and 100 to 10000 nM against USP1-UAF1.
In the case of `COc1ncnc(C2CC2)c1-c1ncc2c(n1)n(Cc1ccc(-c3nc(C(F)(F)F)cn3C(C)C)cc1)c(=N)n2CC(F)(F)F` [Example T-108], the IC50 in the assay on MDA-MB-436 was less than 100 nM; in the assay with HCC1954, no less than 10000 nM; with monoubiquitinated PCNA, less than 100 nM; at USP1-UAF1 it was 30 to 100 nM.
Turning to `COc1ncnc(C2CC2)c1-c1ncc2c(n1)n([C@H](C)c1ccc(-n3nc(C(F)(F)F)cc3OC)cc1)c(=N)n2CC(F)(F)F` [Example T-109, 2-(4-cyclopropyl-6-methoxy-pyrimidin-5-yl)-9-[(1R)-1-[4-[5-methoxy-3-(trifluoromethyl)pyrazol-1-yl]phenyl]ethyl]-7-(2,2,2-trifluoroethyl)purin-8-imine], the 50% inhibitory concentration (IC50) was less than 100 nM with MDA-MB-436, no less than 10000 nM in the assay with HCC1954, less than 100 nM in the assay with monoubiquitinated PCNA and less than 30 nM at USP1-UAF1.
For the compound `COc1ncnc(OC)c1-c1ncc2c(n1)n(Cc1ccc(-c3nc(C(F)(F)F)cn3C)cc1)c(=N)n2CC(F)(F)F` [Example T-110, 2-(4,6-dimethoxypyrimidin-5-yl)-9-[[4-[1-methyl-4-(trifluoromethyl)imidazol-2-yl]phenyl]methyl]-7-(2,2,2-trifluoroethyl)purin-8-imine], the IC50 in the assay on MDA-MB-436 was 100 to 250 nM; in the assay on HCC1954, no less than 10000 nM; with monoubiquitinated PCNA, 250 to 10000 nM; against USP1-UAF1, 30 to 100 nM.
With `COc1ncnc(C2CC2(F)F)c1-c1ncc2c(n1)n(Cc1ccc(-c3nc(C(F)(F)F)cn3C)cc1)c(=N)n2C` (stereo not shown) [Example T-111, 2-(4-(2,2-difluorocyclopropyl)-6-methoxypyrimidin-5-yl)-7-methyl-9-(4-(1-methyl-4-(trifluoromethyl)-1H-imidazol-2-yl)benzyl)-7H-purin-8(9H)-imine], the half-maximal inhibitory concentration (IC50) was less than 100 nM with MDA-MB-436, no less than 10000 nM in the assay with HCC1954, less than 100 nM with monoubiquitinated PCNA and 30 to 100 nM on USP1-UAF1.
As for `Cn1cc(C(F)(F)F)nc1-c1ccc(Cn2c(=N)n(CC(F)(F)F)c3cnc(-c4c(OC(F)(F)F)ccnc4C4CC4)nc32)cc1` [Example T-112, 2-[2-cyclopropyl-4-(trifluoromethoxy)-3-pyridyl]-9-[[4-[1-methyl-4-(trifluoromethyl)imidazol-2-yl]phenyl]methyl]-7-(2,2,2-trifluoroethyl)purin-8-imine], the IC50 with MDA-MB-436 was less than 100 nM; with HCC1954, no less than 10000 nM; in the assay on monoubiquitinated PCNA, 100 to 250 nM; at USP1-UAF1, 30 to 100 nM.
The corresponding values for `COc1ncnc(C2CC2)c1-c1ncc2c(n1)n(Cc1ccc(-n3nc(C(F)(F)F)cc3OC)cc1)c(=N)n2CC(F)F` [Example T-113, 2-(4-cyclopropyl-6-methoxy-pyrimidin-5-yl)-7-(2,2-difluoroethyl)-9-[[4-[5-methoxy-3-(trifluoromethyl)pyrazol-1-yl]phenyl]methyl]purin-8-imine] are less than 100 nM, no less than 10000 nM, less than 100 nM and less than 30 nM.
The corresponding values for `CCOc1cc(C(F)(F)F)nn1-c1ccc(Cn2c(=N)n(CC(F)(F)F)c3cnc(-c4c(OC)ncnc4C4CC4)nc32)cc1` [Example T-114] are less than 100 nM, no less than 10000 nM, less than 100 nM and 30 to 100 nM.
Regarding `Cc1ccnc(OC(F)F)c1-c1ncc2c(n1)n(Cc1ccc(-c3nc(C(F)(F)F)cn3C)cc1)c(=N)n2CC(F)(F)F` [Example T-115, 2-(2-(difluoromethoxy)-4-methylpyridin-3-yl)-9-(4-(1-methyl-4-(trifluoromethyl)-1H-imidazol-2-yl)benzyl)-7-(2,2,2-trifluoroethyl)-7H-purin-8(9H)-imine], the 50% inhibitory concentration (IC50) with MDA-MB-436 fell in the range of 100 to 250 nM; in the assay with HCC1954, 250 to 10000 nM; in the assay with monoubiquitinated PCNA, 100 to 250 nM; on USP1-UAF1, 30 to 100 nM.
On to `COc1ncnc(C2CC2(F)F)c1-c1ncc2c(n1)n(Cc1ccc(-c3nc(C(F)(F)F)cn3C)cc1)c(=N)n2CC(F)(F)F` (stereo not shown) [Example T-116, 2-[4-(2,2-difluorocyclopropyl)-6-methoxy-pyrimidin-5-yl]-9-[[4-[1-methyl-4-(trifluoromethyl)imidazol-2-yl]phenyl]methyl]-7-(2,2,2-trifluoroethyl)purin-8-imine], for which the IC50 in the assay with MDA-MB-436 is less than 100 nM; with HCC1954, no less than 10000 nM; in the assay with monoubiquitinated PCNA, less than 100 nM; against USP1-UAF1, 100 to 10000 nM.

The record behind these values is patent US20240059689A1, “PURINE DERIVATIVES AS ANTICANCER AGENTS” (Tango Therapeutics, Inc., priority 2021, published 2024).
